Test results from patent publication US12678488B2, “Batch management method for improving farrowing rate or number of piglets born alive in swine” (priority 2024, dated 2026).
Entries after “also recorded” stand apart in the source; their conditions may differ. Marks after values point to notes of the source that are not given here.

System: Landrace x Large White reserve sows
Assay: B-Scan ultrasonic monitoring of follicles: ovulation time and ovarian cyst in gilts (Example 2)
Type: in vivo, pigs
Description: Landrace x Large White reserve sows, about 230 days old, were randomly divided into a batch farrowing with FTAI and batch farrowing with FTAI combined with different doses of 1-[bis(4-cyanophenyl)methyl]-1,2,4-triazole groups, and during the experiment, the experimental sows in each group were fed regularly and gained free access to water according to the requirements of feeding management in the farm.
Referring to the dosage of 1-[bis(4-cyanophenyl)methyl]-1,2,4-triazole in clinical medicine and using standard weight-dosage conversion, the recommended dosage of 1-[bis(4-cyanophenyl)methyl]-1,2,4-triazole for sows was 50-150 μg/kg·BW/day, orally for consecutive 5 days, as derived by conversion. In addition, the applicant previously studied uniparous cows, and in the ovulation induction scheme, the reference dosage of 1-[bis(4-cyanophenyl)methyl]-1,2,4-triazole was 60-200 μg/kg·BW, administered in a single dose; furthermore, by means of conversion in conjunction with the dosage for model animals (mice) previously in the laboratory, various dosages were designed. The treatment methods of hormones and drugs for sows in each group were as follows: • batch farrowing with FTAI: the sows were fed with an altrenogest oral solution at 20 mg/animal at the same time every day, for 18 days; PMSG at 1000 IU/animal was injected intramuscularly 42 h after the last feeding with altrenogest, GnRH at 100 μg/animal was injected intramuscularly 80 h after the injection of PMSG, a first timed insemination was performed 24 h after the injection of GnRH, and a second timed insemination was performed 16 h after the first insemination.
(§1) Treatment group 1: the hormone treatment and mating schemes for gilts were the same as FTAI. The difference lay in that PMSG at 1000 IU/gilt was injected intramuscularly 42 h after the last feeding with altrenogest, and 1-[bis(4-cyanophenyl)methyl]-1,2,4-triazole at 12 μg/kg·BW/day was administered orally 8 h after the injection of PMSG, for 1 day.
as §1, with “2:” for “1:”, “2 days.” for “1 day.”
as §1, with “3:” for “1:”, “20” for “12”
as §1, with “4:” for “1:”, “sows” for “gilts”, “1-[bis (4-cyanophenyl)methyl]-1,2,4-triazole” for “1-[bis(4-cyanophenyl)methyl]-1,2,4-triazole”, “20” for “12”, “2 days.” for “1 day.”
as §1, with “5:” for “1:”, “IU/animal” for “IU/gilt”, “20” for “12”, “3 days.” for “1 day.”
as §1, with “6:” for “1:”, “IU/animal” for “IU/gilt”, “20” for “12”, “5 days.” for “1 day.”
Treatment group 7: the hormone treatment and mating schemes for gilts were the same as FTAI. […]

[1] = 80 and 160 μg/kg·BW/day for 5 consecutive days (treatment groups 9 and 10)
[2] = Example 2 Treatment group 1: 12 μg/kg·BW/day orally, 1 day, gilts
[3] = Example 2 Treatment group 2: 12 μg/kg·BW/day orally, 2 days, gilts
[4] = Example 2 Treatment group 3: 20 μg/kg·BW/day orally, 1 day, gilts
[5] = Example 2 Treatment group 4: 20 μg/kg·BW/day orally, 2 days, gilts
[6] = Example 2 Treatment group 5: 20 μg/kg·BW/day orally, 3 days, gilts
[7] = Example 2 Treatment group 6: 20 μg/kg·BW/day orally, 5 days, gilts
[8] = Example 2 Treatment group 7: 40 μg/kg·BW/day orally, 1 day, gilts
[9] = Example 2 Treatment group 8: 40 μg/kg·BW/day orally, 5 days, gilts
[10] = Example 2 Treatment group 9: 80 μg/kg·BW/day orally, 5 days, gilts
[11] = Example 2 Treatment group 10: 160 μg/kg·BW/day orally, 5 days, gilts
[12] = gilts, with the increase of the dosage
[13] = low-dose, batch farrowing with FTAI

## N#Cc1ccc(C(c2ccc(C#N)cc2)n2cncn2)cc1 [1-[bis(4-cyanophenyl)methyl]-1,2,4-triazole]
[1]
  ovarian cyst: had a cyst problem
  ovulation for 10 days after stopping taking altrenogest: did not ovulate
[2]
  Cyst ratio (%): 0.00^b %
  Interval from stopping taking Altrenogest to ovulation (h): 170.13 ± 3.87^a h
  Number of animals with ovarian cyst: 0
  Number of animals with ovulation: 27
[3]
  Cyst ratio (%): 0.00^b %
  Interval from stopping taking Altrenogest to ovulation (h): 172.15 ± 3.34^a h
  Number of animals with ovarian cyst: 0
  Number of animals with ovulation: 23
[4]
  Cyst ratio (%): 0.00^b %
  Interval from stopping taking Altrenogest to ovulation (h): 169.57 ± 2.19^a h
  Number of animals with ovarian cyst: 0
  Number of animals with ovulation: 22
[5]
  Cyst ratio (%): 0.00^b %
  Interval from stopping taking Altrenogest to ovulation (h): 194.25 ± 2.96^b h
  Number of animals with ovarian cyst: 0
  Number of animals with ovulation: 21
[6]
  Cyst ratio (%): 11.53^c %
  Interval from stopping taking Altrenogest to ovulation (h): 177.79 ± 4.75^a h
  Number of animals with ovarian cyst: 3
  Number of animals with ovulation: 24
[7]
  Cyst ratio (%): 15.38^c %
  Interval from stopping taking Altrenogest to ovulation (h): 187.67 ± 3.69^b h
  Number of animals with ovarian cyst: 4
  Number of animals with ovulation: 20
[8]
  Cyst ratio (%): 11.53^c %
  Interval from stopping taking Altrenogest to ovulation (h): 191.50 ± 5.74^b h
  Number of animals with ovarian cyst: 3
  Number of animals with ovulation: 22
[9]
  Cyst ratio (%): 79.17^c %
  Interval from stopping taking Altrenogest to ovulation (h): 210.00 ± 2.65^b h
  Number of animals with ovarian cyst: 19
  Number of animals with ovulation: 4
[10]
  Cyst ratio (%): 100.00^c %
  Number of animals with ovarian cyst: 24
  Number of animals with ovulation: 0
[11]
  Cyst ratio (%): 100.00^c %
  Number of animals with ovarian cyst: 24
  Number of animals with ovulation: 0
gilts, treatment groups 1, 2, 3, and 5, compared with batch farrowing with FTAI
  ovulation time: no significant difference
[12]
  number of ovarian cysts: increased
  time from stopping taking altrenogest to ovulation: prolonged
high-dose
  ovarian cysts: caused ovarian cysts
  ovulation in sows: inhibited
[13]
  ovarian cyst: no ovarian cyst was caused
  ovulation time: no significant change
sows, high-dose 80 μg/kg·BW (FIG. 5)
  ovarian cyst, B-scan ultrasonic inspection: presented as cyst; also recorded: ovarian cyst is presented
sows, high-dose 80 μg/kg·BW (FIG. 5), day 10 after stopping altrenogest
  ovulation, B-scan ultrasonic inspection: no ovulation was observed
sows, low-dose 12 μg/kg·BW (FIG. 4)
  ovulation, B-scan ultrasonic inspection: ovulate normally
